According to the NIST ThermoML archive (doi:10.1021/je101012n):

Assay: mn = molality of the nth substance listed, in mol/kg
Settings: 101 kPa, Liquid, Alternating current cell with electrodes

O=[N+]([O-])[O-].O=[N+]([O-])[O-].[Mn+2] [manganese nitrate] + O
electrical conductivity [S/m]
Settings | 278.1 K | 283.1 K | 298.15 K | 308.15 K | 318.15 K | 343.15 K | 363.15 K
m1 = 0.000917 | 0.05151 | 0.05774 | 0.07688 | 0.08959 | 0.1015 | 0.1307 | 0.155
m1 = 0.01047 | 0.1786 | 0.2033 | 0.282 | 0.3382 | 0.3934 | 0.538 | 0.6651
m1 = 0.086 | 1.04 | 1.179 | 1.63 | 1.958 | 2.295 | 3.125 | 3.692
m1 = 0.8521 | 7.064 | 7.973 | 10.69 | 12.54 | 14.41 | 19.41 | –

[Na+].[OH-] [sodium hydroxide] + O
electrical conductivity [S/m]
Settings | 278.15 K | 283.15 K | 298.15 K | 308.15 K | 318.15 K | 343.15 K | 363.15 K
m1 = 0.001 | 0.01671 | 0.01919 | 0.02459 | 0.02833 | 0.03327 | 0.04401 | 0.05213
m1 = 0.01 | 0.1596 | 0.1793 | 0.2414 | 0.2784 | 0.3201 | 0.4294 | 0.5115
m1 = 0.1 | 1.498 | 1.677 | 2.251 | 2.635 | 3.026 | 4.062 | 4.861
m1 = 0.5 | 6.639 | 7.417 | 9.875 | 11.59 | 13.25 | 17.72 | 20.63
m1 = 1 | 12.13 | 13.5 | 18.01 | 21.19 | 24.38 | 32.74 | 36.66

O=[N+]([O-])[O-].O=[N+]([O-])[O-].[Zn+2] [nitric acid, zinc salt] + O
electrical conductivity [S/m]
Settings | 278.15 K | 283.15 K | 298.15 K | 308.15 K | 318.15 K | 343.15 K | 363.15 K
m1 = 8.7e-05 | 0.001368 | 0.001579 | 0.002248 | 0.002744 | 0.003188 | 0.004549 | 0.00575
m1 = 0.00127 | 0.01814 | 0.02081 | 0.02942 | 0.03606 | 0.04205 | 0.06014 | 0.07615
m1 = 0.00874 | 0.1162 | 0.1334 | 0.1891 | 0.2299 | 0.2687 | 0.383 | 0.4824
m1 = 0.1275 | 1.391 | 1.592 | 2.217 | 2.658 | 3.118 | 4.402 | 5.442
m1 = 0.3325 | 3.111 | 3.653 | 4.931 | 5.906 | 6.986 | 9.937 | 11.83

[Ca+2].[Cl-].[Cl-] [calcium chloride] + O
electrical conductivity [S/m]
Settings | 278.15 K | 283.15 K | 298.15 K | 308.15 K | 318.15 K | 343.15 K | 363.15 K
m1 = 7.6e-05 | 0.001256 | 0.001432 | 0.001998 | 0.002384 | 0.002814 | 0.004073 | 0.00517
m1 = 0.000755 | 0.01195 | 0.01369 | 0.01945 | 0.02351 | 0.02784 | 0.03992 | 0.05001
m1 = 0.00755 | 0.1103 | 0.1263 | 0.1792 | 0.216 | 0.2547 | 0.3636 | 0.4547
m1 = 0.0755 | 0.9331 | 1.062 | 1.496 | 1.793 | 2.11 | 2.982 | 3.694
m1 = 0.3773 | 4.179 | 4.73 | 6.531 | 7.792 | 9.092 | 12.66 | 15.58

O=S(=O)([O-])[O-].[Cs+].[Cs+] [cesium sulfate] + O
electrical conductivity [S/m]
Settings | 278.15 K | 283.15 K | 298.15 K | 308.15 K | 318.15 K | 343.15 K | 363.15 K
m1 = 0.000101 | 0.001962 | 0.002237 | 0.003069 | 0.003625 | 0.004233 | 0.006348 | 0.0078
m1 = 0.00105 | 0.01932 | 0.02195 | 0.0306 | 0.03666 | 0.04304 | 0.06181 | 0.07641
m1 = 0.01021 | 0.1676 | 0.1906 | 0.2654 | 0.3173 | 0.3716 | 0.5216 | 0.6438
m1 = 0.1047 | 1.358 | 1.539 | 2.124 | 2.529 | 2.958 | 4.094 | 5.022
m1 = 0.1836 | 2.24 | 2.528 | 3.468 | 4.119 | 4.792 | 6.59 | 8
m1 = 0.3588 | 4.083 | 4.58 | 6.204 | 7.32 | 8.463 | 11.58 | 13.73

O=S(=O)([O-])[O-].O=S(=O)([O-])[O-].O=S(=O)([O-])[O-].[Fe+3].[Fe+3] [ferric sulfate] + O
electrical conductivity [S/m]
Settings | 343.15 K | 363.15 K
m1 = 0.000104 | 0.659 | 0.6888
m1 = 0.000829 | 0.681 | 0.718

[Br-].[K+] [potassium bromide] + O
electrical conductivity [S/m]
Settings | 278.15 K | 283.15 K | 298.15 K | 308.15 K | 318.15 K | 343.15 K | 363.15 K
m1 = 9.9e-05 | 0.0009344 | 0.001066 | 0.001469 | 0.00175 | 0.002072 | 0.002896 | 0.003522
m1 = 0.000975 | 0.009114 | 0.01037 | 0.01441 | 0.01716 | 0.02007 | 0.02802 | 0.0343
m1 = 0.00987 | 0.08994 | 0.1022 | 0.1417 | 0.1689 | 0.1974 | 0.2761 | 0.3376
m1 = 0.09755 | 0.8252 | 0.9355 | 1.29 | 1.535 | 1.787 | 2.491 | 2.952
m1 = 1.21 | 8.409 | 9.363 | 12.45 | 14.54 | 16.72 | 22.46 | 26.28
